Measurements published in patent publication US20050267182A1, “Urea derivatives as FLT-3 modulators” (Ambit Biosciences Corporation, priority 2003, published 2005).

What was measured:
CS0002 = test: Cell Assay: CS0002; type: cell-based; details: cell assay code CS0002
MV4,11 cells = test: FLT3 assay using MV4,11 cells (cellular proliferation, MTS); type: cell-based, human; details: cell assay code CS0001
Procedure, shortened: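 MV4,11 AML cells, […] switch to DMEM/10% FBS overnight, plated at 10,000 cells/well and exposed to serially diluted compounds in duplicate for 3 days at 37° C., 5% CO2. Proliferation read by MTS added for 2 h.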

FLT3 = target: T1, FLT3 (Homo sapiens, UniProt P36888); test: Binding constant (Kd) measurement, phage-displayed kinase competition binding assay; details: for Binding Assay: FLT3(DKIN): FLT3(DKIN) construct; for Binding Assay: FLT3(JMminus): FLT3(JMminus) construct
T1 construct: FLT3(DKIN); made in house
T1 sequence (P36888 610-943 limits assumed): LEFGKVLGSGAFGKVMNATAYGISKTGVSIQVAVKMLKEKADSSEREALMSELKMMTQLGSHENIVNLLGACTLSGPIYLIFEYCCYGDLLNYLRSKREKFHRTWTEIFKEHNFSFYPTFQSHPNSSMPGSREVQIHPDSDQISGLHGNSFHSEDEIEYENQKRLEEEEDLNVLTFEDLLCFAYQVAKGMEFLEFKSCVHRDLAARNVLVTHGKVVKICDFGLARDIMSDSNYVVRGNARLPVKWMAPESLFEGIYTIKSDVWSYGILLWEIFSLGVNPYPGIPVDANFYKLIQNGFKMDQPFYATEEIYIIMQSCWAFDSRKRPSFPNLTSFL
Source text: Binding Constant (Kd) Measurements for Small-Molecule-Kinase Interactions
The term “ND” represents non-determined values.

CS0005 = test: Cell Assay: CS0005; type: cell-based; details: cell assay code CS0005

| SMILES | IC50 (CS0002) | Cell Assay: CS0001:IC50 (MV4,11 cells) | Binding Assay: FLT3(DKIN) (FLT3) | Cell Assay: CS0005:IC50 (CS0005) | Cell Assay: CS0002:IC50 (CS0002) | Binding Assay: FLT3(JMminus) (FLT3) | Binding Assay: FLT3(JMplus) (FLT3; FLT3(JMplus) construct) |
| --- | --- | --- | --- | --- | --- | --- | --- |
| Cc1ccc(C(=O)Nc2ccc(NC(=O)Nc3cc(C(C)(C)C)on3)cc2)cc1 [Compound N92] | > 10 µM | + + + + | + + + + | + + + + | – | – | – |
| COc1cc2ncnc(Nc3ccc(NC(=O)Nc4cc(C(C)(C)C)on4)cc3)c2cc1OC [Compound O5] | – | + + + + | + + + + | + + + + | + + | – | – |
| CC(C)(C)c1cc(NC(=O)Nc2ccc(OCc3cc(F)cc(F)c3)cc2)no1 [Compound G16] | – | + + + + | + + + + | + + + | + + | – | – |
| CC(C)(C)c1cc(NC(=O)Nc2ccc(NC(=O)c3cccc(O)n3)cc2)no1 [Compound N131] | > 10 µM | + + + + | + + + + | + + + | – | – | – |
| CC(C)(C)c1cc(NC(=O)Nc2ccc(NC(=O)c3cn4c(n3)sc3ccccc34)cc2)no1 [Compound N73] | – | + + + + | – | + + + + | + + + | + + + + | – |
| CC(C)(C)c1cc(NC(=O)Nc2ccc(Nc3nc(Cl)nc4[nH]cnc34)cc2)no1 [Compound O4] | – | + + + + | + + + + | + + + + | + + | – | – |
| Cc1cccc(C(=O)Nc2ccc(NC(=O)Nc3cc(C(C)(C)C)on3)cc2)n1 [Compound N121] | – | + + + + | + + + + | + + + + | + + | – | – |
| CC(C)(C)c1cc(NC(=O)Nc2ccc(NC(=O)c3cnc4ccccc4c3)cc2)no1 [Compound N108] | – | + + + + | + + + + | + + + + | + + | – | – |
| CC(C)(C)c1cc(NC(=O)Nc2ccc(OC/C=C/c3ccccc3Cl)cc2)no1 [Compound G26] | – | + + + + | + + + + | + + + + | + + | – | – |
| CC(C)(C)c1cc(NC(=O)Nc2ccc(NC(=O)c3cc4ccccc4[nH]3)cc2)no1 [Compound N161] | – | + + + + | – | + + + + | + + | + + + + | – |
| CC(C)(C)c1cc(NC(=O)Nc2ccc(NC(=O)c3cccc(F)n3)cc2)no1 [Compound N8] | > 10 µM | + + + + | + + + + | + + + + | – | – | – |
| CC(C)(C)c1cc(NC(=O)Nc2ccc(NC(=O)c3cccc4nsnc34)cc2)no1 [Compound N109] | > 10 µM | + + + + | + + + + | + + + | – | – | – |
| CC(C)(C)c1cc(NC(=O)Nc2ccc(OCCc3ccncc3)cc2)no1 [Compound G22] | > 10 µM | + + + + | + + + + | + + + + | – | – | – |
| CC(C)(C)c1cc(NC(=O)Nc2ccc(OCc3ccc(Cl)cc3)cc2)no1 [Compound G34] | > 10 µM | + + + + | + + + + | + + + | – | – | – |
| Cc1cccnc1C(=O)Nc1ccc(NC(=O)Nc2cc(C(C)(C)C)on2)cc1 [Compound N41] | > 10 µM | + + + + | + + + + | + + + + | – | – | – |
| CC(C)(C)c1cc(NC(=O)Nc2ccc(OCc3ccccc3Cl)cc2)no1 [Compound G10] | – | + + + + | + + + + | + + + | + + | – | – |
| CC(C)(C)c1cc(NC(=O)Nc2ccc(NC(=O)c3csc(-c4ccncc4)n3)cc2)no1 [Compound N16] | > 10 µM | + + + + | + + + + | + + + | – | – | – |
| Cc1ccc2[nH]c(C(=O)Nc3ccc(NC(=O)Nc4cc(C(C)(C)C)on4)cc3)cc2c1 [Compound N127] | – | + + + + | – | + + + + | + + | + + + + | – |

| SMILES | IC50 (CS0002) | Cell Assay: CS0001:IC50 (MV4,11 cells) | Binding Assay: FLT3(DKIN) (FLT3) | Cell Assay: CS0005:IC50 (CS0005) | Cell Assay: CS0002:IC50 (CS0002) | Binding Assay: FLT3(JMminus) (FLT3) | Binding Assay: FLT3(JMplus) (FLT3; FLT3(JMplus) construct) |
| --- | --- | --- | --- | --- | --- | --- | --- |
| Cn1cc(C(=O)Nc2ccc(NC(=O)Nc3cc(C(C)(C)C)on3)cc2)c2ccccc21 [Compound N119] | – | + + + + | + + + + | + + + + | + + | – | – |
| COc1cc(C(=O)Nc2ccc(NC(=O)Nc3cc(C(C)(C)C)on3)cc2)nc(OC)n1 [Compound N162] | – | + + + + | – | + + + + | + + | + + + + | – |
| CC(C)(C)c1cc(NC(=O)Nc2ccc(C(=O)Nc3ccc(OCC4CCC4)cc3)cc2)no1 [Compound N100] | > 10 µM | + + + + | + + + + | + + + + | + + | – | – |
| CC(C)(C)c1cc(NC(=O)Nc2ccc(NC(=O)c3cccc[n+]3[O-])cc2)no1 [Compound N81] | > 10 µM | + + + + | – | + + + + | – | + + + + | – |
| COc1cc(C(=O)Nc2ccc(NC(=O)Nc3cc(C(C)(C)C)on3)cc2)nc2ccccc12 [Compound N137] | – | + + + + | + + + + | + + + | + + | – | – |
| CSc1ncc(Br)c(C(=O)Nc2ccc(NC(=O)Nc3cc(C(C)(C)C)on3)cc2)n1 [Compound N114] | – | + + + + | + + + + | + + + | + + | – | – |
| CC(C)(C)c1cc(NC(=O)Nc2ccc(NC(=O)c3cscn3)cc2)no1 [Compound N57] | > 10 µM | + + + + | + + + + | + + + + | – | – | – |
| CC(C)(C)c1cc(NC(=O)Nc2ccc(NC(=O)c3cc4cc(Br)ccc4s3)cc2)no1 [Compound N126] | – | + + + + | + + + + | + + + + | + + + | – | – |
| CC(C)(C)c1cc(NC(=O)Nc2ccc(NC(=O)c3cn4nc(Cl)ccc4n3)cc2)no1 [Compound N9] | – | + + + + | + + + + | + + + + | + + | – | – |
| Cc1cnc(C(=O)Nc2ccc(NC(=O)Nc3cc(C(C)(C)C)on3)cc2)cn1 [Compound O2] | > 10 µM | + + + + | + + + + | + + + + | – | – | – |
| CC(C)(C)c1cc(NC(=O)Nc2ccc(NC(=O)c3ccc4sccc4c3)cc2)no1 [Compound N122] | > 10 µM | + + + + | + + + + | + + + + | – | – | – |
| CC(C)(C)c1cc(NC(=O)Nc2ccc(NC(=O)c3cc(N4CCOCC4)nc(N4CCOCC4)n3)cc2)no1 [Compound N54] | – | + + + + | + + + + | + + + + | + + + | – | – |
| CC(C)(C)c1cc(NC(=O)Nc2ccc(Nc3nc(N)nc4[nH]cnc34)cc2)no1 [Compound O6] | > 10 µM | + + + + | + + + + | + + + + | – | – | – |
| CC(C)(C)c1cc(NC(=O)Nc2ccc(NC(=O)c3ccccn3)cc2)no1 [Compound N188] | > 10 µM | + + + + | + + + + | + + + + | – | + + + + | + + + |
| COc1ccnc(Nc2ccc(C(=O)Nc3ccc(NC(=O)Nc4cc(C(C)(C)C)on4)cc3)cc2)n1 [Compound N51] | – | + + + + | + + + + | + + + + | + + | – | – |
| CC(C)(C)c1cc(NC(=O)Nc2ccc(NC(=O)c3ccc4ncccc4c3)cc2)no1 [Compound N151] | > 10 µM | + + + + | + + + + | + + + + | – | – | – |
| Cc1nn(C)c(Cl)c1C(=O)Nc1ccc(NC(=O)Nc2cc(C(C)(C)C)on2)cc1 [Compound N116] | – | + + + + | + + + + | + + + + | + + | – | – |
| CC(C)(C)c1cc(NC(=O)Nc2ccc(OCCCc3ccncc3)cc2)no1 [Compound G1, 1-(4-(3-(pyridin-4-yl)propoxy)phenyl)-3-(5-tert-butylisoxazol-3-yl)urea] | > 10 µM | + + + + | + + + + | + + + + | – | – | – |
